Here are results for five compounds from publication PMC6084929, “Differential effects of angiotensin II type I receptor blockers on reducing intraocular pressure and TGFβ signaling in the mouse retina” (PLoS ONE, 2018).

Data set [1] relates to mouse model of normotensive glaucoma. More on the design: method as in PMID 25032856. The conditions noted are these: cited from earlier work.
In data set [2] the test system is rat model with IOP elevation. More on the design: method as in PMID 19608537. As to conditions: oral; cited from earlier work.
Data set [3] has as its system C57BL/6J mice. The data set can be described thus: IOP measurement with Tonolab rebound tonometer in ARB-treated mice. The conditions noted are these: for Change in IOP compared to normal chow control / Average reduction of the median IOP / Rate of IOP reduction compared to control: 2 g/kg in chow; for Change in IOP compared to normal chow control: after 3 and 7 days of treatment; for Average reduction of the median IOP: compared to day 0; for Rate of IOP reduction compared to control: slope between days 3 and 7; for Median IOP at day 0: before start of chow treatment, by treatment group. It is filed as in vivo, mouse. The procedure:
IOP of mice anesthetized with 2.5% isoflurane in oxygen delivered at 1.5 L/min by an inhalation anesthesia system (Vet Equip, Livermore, CA, USA) was measured using a Tonolab rebound tonometer (Icare, Vantaa, Finland) following manufacturer’s recommendations by an operator blinded to the treatment status of the mice. Measurements were performed within 3 mins of immobilization to minimize isoflurane-induced IOP changes and at the same time of day (1:00–3:00 p.m.) to avoid diurnal variation.
(§1) Sample sizes were not pre-determined by statistical methods, but are similar to or exceed numbers typical of similar experiments. The IOP changes of treated mice relative to the IOP changes of normal chow fed mice were presented with mean and 95% confidence interval based on t-statistics. A linear regression model for BP change from baseline was used to study effects of ARBs on BP, adjusting for baseline BP. For comparing IOP in groups of mice untreated or treated with ARBs for 3 and 7 days, a mixed effects model that included baseline IOP, left versus right eye, time of measurement and interaction between time and drug with random effects of intercept and slope within individual mice was used, adjusting for correlation between left and right eye within the same mouse, as well as repeated measurements over time. A one-way ANOVA was used for comparing chow pSmad2 fluorescence of mice untreated or treated with ARBs. The models for BP, IOP, and pSmad2 fluorescence were followed by Dunnett’s method for multiple comparisons correction. Differences in the change in IOP for each drug, relative to change in IOP of normal-fed control were evaluated at day 3 and day 7 of treatment, and differences in the rate of change in IOP were evaluated as the slope of the line defined by relative change at days 3 and 7. Corrected p-values < 0.05 were considered significant. Linear regression and mixed effect model analysis was performed with R 3.4.1 (R Core Team. R: A language and environment for statistical computing. R Foundation for Statistical Computing, Vienna, Austria. URL http://www.R-project.org/, 2013). All other statistical analysis was performed using GraphPad Prism version 7.00 for Windows software (GraphPad Software, La Jolla, CA, USA).

Data set [4] deals with TGFβ signaling (pSmad2). The data set can be described thus: pSmad2 immunohistochemistry of the retina (RGC layer) as read-out of TGFβ signaling. It counts as in vivo, mouse. As to conditions: 2 g/kg in chow, 7 days, 3 days. The procedure: Eyes were enucleated and post-fixed in PBS/PFA for an additional 24–48 h and embedded in paraffin. Five micron-thick sections were deparaffinized, incubated at 90°C for 30 mins in 10 mM sodium citrate buffer, pH 6.0 for epitope retrieval and then incubated for 2 h at room temperature in blocking solution (PBS/5% normal donkey serum/1% BSA/0.1% Tween-20). Sections were then incubated with rabbit polyclonal antibody to pSmad2 (1:100, Thermo Fisher Scientific, MA, USA) in blocking solution overnight at 4°C in a humidified chamber. Following three 5 min washes in wash solution (PBS/0.1% Tween-20), sections were incubated in AlexaFluor-546 labeled donkey anti-rabbit IgG diluted 1:1000 in blocking solution for 2 h at room temperature in a dark humidified chamber. Sections were washed again three times for 5 mins each in wash solution and cover-slipped with Prolong Gold Antifade with DAPI mounting medium (Thermo Fisher Scientific). Sections were imaged using a Nikon AZ 100M upright, wide-field microscope using a 5x Plan Fluor/0.5 NA air objective and captured with a Nikon DS-Ri1 color camera (Nikon Instruments, Melville, NY, USA). Retinal images were acquired adjacent to the optic nerve head. Immunostaining and imaging experiments using the right eye of each mouse were carried out in batches of sections that included samples from two vehicle-fed mice and two samples each from losartan, irbesartan and telmisartan-fed mice using identical image acquisition parameters within each batch. Immunostaining and imaging experiments were carried out twice for each batch of samples. Mean fluorescence intensity of pSmad2 immunofluorescence was quantified using FIJI (ImageJ) biological image analysis package. Background-subtracted mean fluorescence intensity of the RGC layer was determined by subtracting the mean background intensity within the adjacent inner plexiform layer from the mean fluorescence intensity within a mask drawn around the RGC layer. Normalized background-subtracted mean fluorescence intensity within each batch of samples was determined by dividing the background-subtracted mean fluorescence intensity of each sample by the average of the background-subtracted mean fluorescence intensities of the two vehicle-fed control samples. For each mouse, normalized background-subtracted mean fluorescence intensity was determined as the average of duplicate experiments and is presented as normalized mean fluorescence.

In data set [5] the test system is C57BL/6J mice. Nature of the data set: Systolic BP by tail-cuff method in ARB-treated mice. It counts as in vivo, mouse. The conditions noted are these: 2 g drug/kg chow, day 3; p < 10^-4. The procedure: as §1, with “BP was measured by the tail-cuff method (BP 2000 Blood Pressure Analysis System, Visitech Systems, Apex, NC, USA) according to manufacturer recommendations and as previously described by an operator blinded to the treatment status of the mice. In brief, mice were restrained and their tail placed through an inflatable tail cuff held in place by adhesive tape. […] Mice were conditioned to the system prior to experimental measurements by being subjected to the full recording procedure daily for several days. Acclimation and BP measurements were performed between 9:00 and 11:00 a.m. Since diastolic measurements are inherently inaccurate with this method, only systolic BP is reported here. […] Sample” for “Sample”, “Corrected p-values < 0.05 were considered significant. Linear regression and mixed effect model analysis was performed with R 3.4.1 (R Core Team. R: A language and environment for statistical computing. R Foundation for Statistical Computing, Vienna, Austria. URL http://www.R-project.org/, 2013). All other statistical analysis was performed using GraphPad Prism version 7.00 for Windows software (GraphPad Software, La Jolla, CA, USA).” left out

On the set-up of data set [6]: method as in PMID 23487168. As to conditions: cited from earlier work.
The nature of data set [7]: Solubilization in unbuffered water. It is filed as physicochemical. The conditions noted are these: attempt to solubilize for drinking water delivery.
For data set [8], the system named is rabbits with experimental and inherited elevated IOP. More on the design: method as in PMID 11840352. As to conditions: cited from earlier work.
The test system of data set [9] is monkeys with laser-induced IOP elevation. More on the design: method as in PMID 15862169. As to conditions: cited from earlier work.
Data set [10] addresses AT1R. On the set-up: method as in PMID 20603272. As to conditions: cited from earlier work.
For data set [11], the system named is rabbit eyes with induced IOP elevation. More on the design: method as in PMID 10942157. The conditions noted are these: eye drops of 0.1% losartan in saline; cited from earlier work.
Data set [12] has as its system CD1 mice. The conditions noted are these: cited from earlier work.
In data set [13] the test system is human glaucoma patients with elevated IOP, and normal controls. As to conditions: 50 mg oral dose; cited from earlier work.

Some results are limits rather than exact numbers.

As to `CCOc1nc2cccc(C(=O)O)c2n1Cc1ccc(-c2ccccc2-c2nnn[nH]2)cc1` [candesartan], the “Effect on IOP” value is “no effect on IOP” in data set [1] (10 mg/kg/day by oral gavage) and “did not affect IOP” in data set [2]. For the same compound, the “Effect on RGCs and inner retina” value in data set [1] (orally administered) was “reduced loss of RGCs and thinning of the inner retina”. Also, the “Effect on RGC loss” value in data set [2] is listed as “reduced RGC loss”.

Turning to `CCCc1nc2c(C)cc(-c3nc4ccccc4n3C)cc2n1Cc1ccc(-c2ccccc2C(=O)O)cc1` [telmisartan], in [3], the “Change in IOP compared to normal chow control” value (“Change in IOP” for short) is listed as “significant decreases in IOP”, the “Average reduction of the median IOP” value is recorded as 13.3%, the “Rate of IOP reduction compared to control” value (from here on “Rate of IOP reduction”) is listed as “significantly greater than control” and the “Median IOP at day 0” value was determined as 16.7. In [4], the “Effect on pSmad2 fluorescence of the RGC layer” value (from here on “Effect on pSmad2 fluorescence”) was “significantly reduced”. The “Reduction of pSmad2 fluorescence in the RGC layer compared to normal fed mice” value in data set [4] (p = 0.034) is recorded as 70%. Besides, the “Systolic BP compared to mice fed normal chow” value in data set [5] is reported as “significantly lower BP”. The Lipophilicity entry in data set [6] is reported as “most lipophilic ARB”. The “Solubility in unbuffered water” value in [7] was “readily precipitated out of solution”.

Consider `CCCc1nc(C(C)(C)O)c(C(=O)O)n1Cc1ccc(-c2ccccc2-c2nnn[nH]2)cc1` [olmesartan], for which the “Effect on IOP” value in data set [8] and in data set [9] was “IOP-lowering effects” each time.

Take `CCCCC1=NC2(CCCC2)C(=O)N1Cc1ccc(-c2ccccc2-c2nnn[nH]2)cc1` [irbesartan]: in [3], the “Change in IOP” value was “significant decreases in IOP”, the “Average reduction of the median IOP” value was 15.4%, the “Rate of IOP reduction” value was “significantly greater than control” and the “Median IOP at day 0” value is reported as 17.0. For the same compound, the Kd in data set [10] was approximately 2 nM. Also, the “Effect on pSmad2 fluorescence” value in data set [4] is reported as “no significant effect”. Besides, in [5], the “Systolic BP compared to mice fed normal chow” value is “significantly lower BP”. In data set [7], the “Solubility in unbuffered water” value was “readily precipitated out of solution”.

On to `CCCCc1nc(Cl)c(CO)n1Cc1ccc(-c2ccccc2-c2nn[nH]n2)cc1` [losartan, Losartan potassium], for which the “IOP after losartan treatment” value in data set [3] (1.2 g/L losartan in drinking water, 3 days, 10 female C57BL/6 mice 1 year of age, right eye, mean +/-SD, p = 0.4) is recorded as 15.4 +/- 1.9 mmHg. Further, the “Effect on IOP” value in data set [3] (1.2 g/L losartan in drinking water, 3 days, normal mice) is on record as “did not affect IOP”. Besides, the “IOP before losartan treatment (baseline)” value in [3] (1.2 g/L losartan in drinking water, 10 female C57BL/6 mice 1 year of age, right eye, mean +/-SD) is 14.8 +/-1.4 mmHg. Further, in data set [3], the “Change in IOP” value is “did not significantly lower IOP”, the “Rate of IOP reduction” value is given as “no significant effect” and the “Median IOP at day 0” value was found to be 16.9. The Kd in [10] was approximately 10 nM. In addition, the “Effect on IOP” value in [11] is on record as “IOP-lowering effects”. Moreover, the “Effect on IOP” value in [12] (0.6 g/L in drinking water, normotensive eyes or eyes with microbead-induced elevated IOP) was “no effect on IOP”. In data set [12] (oral via drinking water, eyes with elevated IOP induced by microbead injection), the “Effect on RGCs” value was “neuroprotective effect for RGCs”. In addition, the “Mean reduction of IOP” value in data set [13] is on record as not above 16%. The “Effect on pSmad2 fluorescence” value in data set [4] is reported as “no significant effect”. Also, the “Systolic BP compared to mice fed normal chow” value in data set [5] is recorded as “significantly lower BP”.
